These results are taken from US20130012429A1, “ANTI-VIRAL THERAPY” (priority 2011, published 2013).

“Also recorded” adds a separate entry of the source. No end group written: not given here.

One test concerns HCV (Jc1 HCV strain). The test is described as follows: Antiviral experiments: HCV-RNA in supernatants and cells of HCV-infected HuH7.5 cells (qRT-PCR). Format: cell-based, hepatitis C virus. An excerpt: The Jc1 HCV strain was produced as described previously (Reference 20). Briefly, HuH7.5 cells were transfected with Jc1 RNA by electroporation and supernatants harvested 14-20 days post transfection. HuH7.5 cells were infected at a multiplicity of infection (MOI) of 0.02 unless otherwise stated. Infection was allowed to proceed for 9-11 days at which point infection was greater than 90% as determined by immunofluorescence (also described in Reference 20).
5 day time course: cells infected as described above at a MOI of 0.02 for 2 h were plated and then immediately treated with BMP6 at the doses stated in the figures for the duration of the infection. 10 day time course: cells infected for 2 h were plated and incubated for 3 days. Cells were sub-cultured and BMP6 added at the stated doses. Additional doses of the same concentration were applied at further sub-culturing to maintain the dose. For both time courses, IFNa (PBL Biomedical Laboratories) was added at 1000 U overnight either at day 4 (5 day time course) or day 9 (10 day time course). Supernatant RNA extraction was performed using QIAamp viral RNA extraction kit and total cellular RNA was extracted using RNeasy kit (both Qiagen). cDNA was then transcribed using the Superscript III Reverse transcriptase (Invitrogen) (random hexamers), all according to the manufacturers' protocols. HCV-RNA levels were measured using qRT-PCR in a LightCycler 480 Real-Time PCR System (Roche). cDNA at 10-100 ng/uL was amplified using RC1 (5′ […] 3′ (SEQ ID NO:3)) and RC21(5′ […] 3′ (SEQ ID NO:4)) primers. Each reaction was run in duplicate. HCV-RNA levels were quantified using a standard curve derived from HCV Jc1 cDNA.
(Real-time PCR tracks product formation cycle by cycle.)

Test [1] relates to SMAD1/5/8 phosphorylation. The test is described as follows: Western blot of p-SMAD1/5/8 in Hep3B cells pre-treated with TNF-alpha and exposed to BMP6. Format: cell-based, human. How it is done:
Hep3B cells were exposed to TNF-alpha at 20 ng/mL for 48 hours before the addition of BMP6 at an end concentration of 2 nM. Lysates were harvested at either 1 h or 18 h post addition of BMP6. Briefly, cells were trypsinised and lysed for 20 min on ice in NP40 1% buffer supplemented with protease inhibitors (Sigma) at 1:500 and phosphatase inhibitor cocktail 2 (Sigma) at 1:100. The lysates were spun at 4° C., 13,000 rpm for 5 minutes and the supernatants stored at −80° C. until the blot was performed. Briefly, the protein content of the lysates was normalised using the BCA assay (Pierce) and run on 12% SDS-PAGE mini gels. Gels were blotted onto nitrocellulose membranes (GE Healthcare) and then blocked for 1 hour at room temperature in PBS containing 5% (w/v) milk. Membranes were then probed overnight at 4° C. in TBS-TWEEN containing 5% (w/v) BSA with the following primary antibodies: mouse anti-beta-actin (loading control) (Sigma), mouse anti-rabbit IgG (negative control) (Dako), rabbit anti-pSMAD1/5/8 (Cell Signalling), or rabbit anti-H.Pylori (negative control) (Dako). […] Membranes were developed using ECL reagent (GE Healthcare), films were scanned using an AlphaScan (Alpha Innotech) running Epson Scan software (Seiko Epson), and band intensities were determined using ImageQuant5.2 (Molecular Dynamics).

The test system of the next test is HAMP mRNA. The test is described as follows: HAMP mRNA induction by BMP6, BMP9 or IL-6 in hepatoma cells pre-treated with TNF-alpha (qRT-PCR). Format: cell-based, human. Particulars: TNF-alpha treatment. How it is done:
(§1) RNA extraction and cDNA synthesis were carried out by using either RNeasy kits with QIAshredder homogenization (both Qiagen) and the High capacity RNA-to-cDNA kit (Applied Biosystems), or by using the Cells-to-Ct kit (Applied Biosystems), all according to the manufacturers' protocols. qRT-PCR reactions were performed on an Applied Biosystems Fast 7500 Real-Time PCR System (Applied Biosystems). Gene expression was assessed using inventoried Taqman Gene Expression Assays (Applied Biosystems) (see table 4 for assay codes) with Taqman Gene Expression Master Mix (Applied Biosystems) following the manufacturer's instructions. cDNA was diluted in Nuclease-Free Water (Ambion) to achieve a final concentration of 1-3 ng/uL. Samples were run in duplicate and gene expression levels were quantified relative to glyceraldehyde-3-phosphate dehydrogenase (GAPDH) mRNA expression using the delta Ct method; in some cases relative expression was then quantified further by normalizing to the untreated controls (delta-delta Ct method).
(§2) The hepatoma cell line Hep3B were maintained in MMEM supplemented with 10% foetal calf serum (PAA), 2 mM glutamine, 100 U/mL penicillin, 0.1 mg/mL streptomycin (all Sigma). HuH7 and HuH7.5 cells were cultured in DMEM supplemented as above. HuH7.5 cells infected at a MOI of 0.02 or hepatoma cells pre-treated for 48 h with TNF-alpha at 20 ng/mL were incubated overnight with titrations of human recombinant BMP6 or BMP9, and in the case of TNF-alpha treated cells IL-6 (all R&D Systems). Titrations of TNF-alpha were applied for 48 h prior to RNA extraction. A neutralizing anti-TNF-alpha antibody (clone 1825), (R&D Systems) supplemented the culture medium of HCV infected HuH7.5 cells at 0.2 μg/mL and was added at each sub culture from 2 days post infection to the end of the infection course. Uninfected cells were cultured and treated in parallel with the HCV infected cells.

The subject of test [2] is BMP/SMAD signalling pathway. The test is described as follows: HJV, SMAD6 and SMAD7 mRNA in uninfected hepatoma (Hep3B) cells incubated with TNF-alpha (qRT-PCR). Format: cell-based, human. How it is done: as §1, §2
Test [3] deals with Influenza A Virus Strain PR8. Format: cell-based. The following applies: infected HuH7 cells mixed 1:10 with uninfected, cultured 24 hours; compared with interferon alpha and beta; FIG. 2.
Where [4] appears, read: 1 uM hepcidin peptide added 3 days after HCV inoculation, a further 7 days, FIG. 11.

As for “hepcidin: hepcidin peptide, the iron regulatory hormone encoded by HAMP, added exogenously at 1 uM (DTHFPICIFCCGCCHRSKCGMCCKT; ends and bridges not checked; cysteine pairing not given here; UniProt P81172 60-84, looked up)”, in the test on HCV (Jc1 HCV strain) (setting [4]), the “HCV RNA in cells” value is “not significantly altered” and the “HCV RNA in supernatant” value is “not significantly altered”. Also, the “effect on HCV replication” value in the test with HCV (Jc1 HCV strain) (FIG. 11) is “No specific effect”.
Regarding TNF-alpha, the “inhibition of SMAD1/5/8 phosphorylation stimulated by BMP6” value in test [1] (18 hr exposure to BMP6, TNF-alpha pre-treatment) is on record as roughly 35%. Further, the “p-SMAD1/5/8 after incubation with BMP6” value in test [1] (Hep3B cells, BMP6 for both 1 hr and 18 hr, FIG. 9a) is on record as “reduced”. Further, the “mean suppression of HAMP mRNA upregulation in response to BMP6” value in the test on HAMP mRNA (FIG. 9b) is recorded as 16.8 fold. For the same molecule, the “mean suppression of HAMP mRNA upregulation in response to BMP9” value in the test with HAMP mRNA (FIG. 9c) is listed as 4.3 fold. For the same molecule, the “hepcidin response to IL-6” value in the test on HAMP mRNA (FIG. 10) was “blunted”. For the same molecule, the “HJV mRNA levels” value in test [2] (FIG. 5e) is reported as “reduced”. In addition, in test [2] (FIG. 5f), the “SMAD6 mRNA” value is “increased” and the “SMAD7 mRNA” value is “increased”.

B1: BMP6: human recombinant BMP6 (R&D Systems), a bone morphogenetic protein that stimulates the BMP/SMAD signalling pathway (protein, UniProt P22004 375-513, looked up)
Bone morphogenetic protein 6: SASSRRRQQSRNRSTQSQDVARVSSASDYNSSELKTACRKHELYVSFQDLGWQDWIIAPKGYAANYCDGECSFPLNAHMNATNHAIVQTLVHLMNPEYVPKPCCAPTKLNAISVLYFDDNSNVILKKYRNMVVRACGCH
In the case of B1, in test [3], the “spread of the Influenza virus (level of haemagglutinin)” value is “restricts spread of the Influenza virus”. The “viral RNA in supernatants, established infection” value with HCV (Jc1 HCV strain) (2 nM BMP6 added after 3 days of HCV replication, measured after a further 7 days) is “reduced modestly”; in the test on HCV (Jc1 HCV strain) (6 nM BMP6 added after 3 days of HCV replication, measured after a further 7 days), “reduced modestly”; with HCV (Jc1 HCV strain) (10 days post-infection, 18 nM BMP6 for 7 days or IFNa overnight, FIG. 12c) it was “lower”. The “culture supernatant HCV RNA after 5 days” value in the test with HCV (Jc1 HCV strain) (5 days post-infection, BMP6 at all doses for the duration of the infection, IFNa overnight, FIG. 12b) was “significantly reduced; also recorded: significantly lower”. Further, the “cellular HCV RNA, established infection” value in the test on HCV (Jc1 HCV strain) (10 days post-infection, 18 nM BMP6 for 7 days or IFNa overnight, FIG. 12d) is “significantly reduced; also recorded: lower”. Besides, the “accumulation of HCV RNA in culture supernatants over time” value in the test on HCV (Jc1 HCV strain) (BMP6 added immediately after infecting HuH7.5 cells, 5 day time course, FIG. 12a) was “severely restricted; also recorded: reduced”. Also, the “suppression of HCV growth” value in the test with HCV (Jc1 HCV strain) (in vitro live virus model, over 5 days) is recorded as “over 90%”.
